Measured values taken from the RepoRT retention time repository (doi:10.1016/j.chroma.2012.03.059).

Assay: RP, Agilent ZORBAX Eclipse XDB-C8, 150 × 4.6 mm, 3.5 µm, 25 °C, 0.6 mL/min, estimated dead time 2.6 min; A: water + 0.1% formic acid; B: acetonitrile + 0.1% formic acid; gradient (min/%B) 0/10 5/10 30/100
Conditions: stereoisomer not certain
With `NC(=O)N1c2ccccc2C=Cc2ccccc21` the LC retention time was 17.2 min. Work on `Cc1onc(-c2ccccc2)c1C(=O)NC1C(=O)N2C1SC(C)(C)C2C(=O)O` (stereo unspecified) yielded an LC retention time of 19.2 min. Compound `O=C1NC(=O)C(c2ccccc2)(c2ccccc2)N1` has an LC retention time of 17.1 min. Compound `CCC(C)(C)C(=O)OC1CC(C)C=C2C=CC(C)C(CCC3CC(O)CC(=O)O3)C21` (stereo unspecified) has an LC retention time of 26.9 min. `CON=C(C(=O)NC1C(=O)N2C(C(=O)O)=C(COC(C)=O)CSC12)c1csc(N)n1` (stereo unspecified) showed an LC retention time of 12.9 min. In the case of `CC1(C)SC2C(NC(=O)C(N)c3ccccc3)C(=O)N2C1C(=O)O` (stereo unspecified), the LC retention time is reported as 10.4 min. `CC(C)NCC(O)COc1ccc(CC(=O)O)cc1` (stereo unspecified) showed an LC retention time of 9.4 min. `Cc1ccnc(NS(=O)(=O)c2ccc(N)cc2)n1` gave an LC retention time of 11.5 min. Compound `Cc1cccc(Nc2ccccc2C(=O)O)c1C` has an LC retention time of 24.6 min. For `CCC(=O)C(CC(C)N(C)C)(c1ccccc1)c1ccccc1` (stereo unspecified), the LC retention time was 16.6 min. With `COc1ccc2c3c1OC1C(O)C=CC4C(C2)N(C)CCC341` (stereo unspecified) the LC retention time was 7 min. Work on `CCCC(C)(COC(N)=O)COC(N)=O` yielded an LC retention time of 14.7 min. With `CCn1cc(C(=O)O)c(=O)c2cc3c(cc21)OCO3` the LC retention time was 15.4 min. With `CN1CCC23CCCCC2C1Cc1ccc(O)cc13` (stereo unspecified) the LC retention time was 12.1 min. With `CN=C(NC#N)NCCSCc1nc[nH]c1C` the LC retention time was 4.3 min. Compound `CC(C)(C)NCC(O)c1ccc(O)c(CO)c1` (stereo unspecified) has an LC retention time of 4 min. For `COc1ccc2c3c1OC1C(=O)CCC4(O)C(C2)N(C)CCC314` (stereo unspecified), the LC retention time was 9.4 min. For `CCC1OC(=O)C(C)C(OC2CC(C)(OC)C(O)C(C)O2)C(C)C(OC2OC(C)CC(N(C)C)C2O)C(C)(O)CC(C)C(=NOCOCCOC)C(C)C(O)C1(C)O` (stereo unspecified), the LC retention time was 16.2 min. `CCC1OC(=O)C(C)C(OC2CC(C)(OC)C(O)C(C)O2)C(C)C(OC2OC(C)CC(N(C)C)C2O)C(C)(O)CC(C)C(=O)C(C)C(O)C1(C)O` (stereo unspecified) showed an LC retention time of 14.6 min. `COc1cc(Cc2cnc(N)nc2N)cc(OC)c1OC` gave an LC retention time of 10.4 min. `CCC1OC(=O)CC(O)C(C)C(OC2OC(C)C(OC3CC(C)(O)C(O)C(C)O3)C(N(C)C)C2O)C(CC=O)CC(C)C(=O)C=CC(C)=CC1COC1OC(C)C(O)C(OC)C1OC` (stereo unspecified) showed an LC retention time of 15 min. For `CNC(=C[N+](=O)[O-])NCCSCc1ccc(CN(C)C)o1`, the LC retention time was 4.6 min. Work on `c1ccc2[nH]c(-c3cscn3)nc2c1` yielded an LC retention time of 8.8 min. `CC1(C)SC2C(NC(=O)COc3ccccc3)C(=O)N2C1C(=O)O` (stereo unspecified) gave an LC retention time of 17.9 min. With `COc1ccc2c3c1OC1C(=O)CCC4C(C2)N(C)CCC314` (stereo unspecified) the LC retention time was 10.1 min. With `CCC1OC(=O)C(C)C(OC2CC(C)(OC)C(O)C(C)O2)C(C)C(OC2OC(C)CC(N(C)C)C2O)C(C)(O)CC(C)CN(C)C(C)C(O)C1(C)O` (stereo unspecified) the LC retention time was 12.2 min. `CCC1OC(=O)C(C)C(OC2CC(C)(OC)C(O)C(C)O2)C(C)C(OC2OC(C)CC(N(C)C)C2O)C(C)(OC)CC(C)C(=O)C(C)C(O)C1(C)O` (stereo unspecified) gave an LC retention time of 16 min. `CCC1(c2ccccc2)C(=O)NCNC1=O` showed an LC retention time of 12.7 min. For `COc1ccc(C2Sc3ccccc3N(CCN(C)C)C(=O)C2OC(C)=O)cc1` (stereo unspecified), the LC retention time was 15.2 min. In the case of `Nc1ccc(S(=O)(=O)Nc2ncccn2)cc1`, the LC retention time is reported as 9.9 min. For `CN(C)CCOC(c1ccccc1)c1ccccc1`, the LC retention time was 15.1 min. Compound `CC(C(=O)O)c1cccc(C(=O)c2ccccc2)c1` (stereo unspecified) has an LC retention time of 19 min. `NC(=O)N1c2ccccc2CC(=O)c2ccccc21` gave an LC retention time of 15.8 min. For `NC(=O)N1c2ccccc2C(O)C(O)c2ccccc21` (stereo unspecified), the LC retention time was 12.9 min. `COc1ccc2c(c1)C13CCCCC1C(C2)N(C)CC3` (stereo unspecified) gave an LC retention time of 14.6 min. In the case of `COc1cccc(C2(O)CCCCC2CN(C)C)c1` (stereo unspecified), the LC retention time is reported as 11.1 min. Compound `COc1cc(NS(=O)(=O)c2ccc(N)cc2)nc(OC)n1` has an LC retention time of 16.5 min. For `Cn1c(=O)[nH]c2ncn(C)c2c1=O`, the LC retention time was 6.3 min. With `Nc1ccc(S(=O)(=O)Nc2nccs2)cc1` the LC retention time was 10.6 min. Work on `CC(=O)Nc1ccc(O)cc1` yielded an LC retention time of 6.5 min. Work on `CN(C)CC(c1ccc(O)cc1)C1(O)CCCCC1` (stereo unspecified) yielded an LC retention time of 11.3 min. With `Nc1ccc(S(N)(=O)=O)cc1` the LC retention time was 4.6 min. `CC1OC(OC2C(O)CC(OC3C(O)CC(OC4CCC5(C)C(CCC6C5CC(O)C5(C)C(C7=CC(=O)OC7)CCC65O)C4)OC3C)OC2C)CC(O)C1O` (stereo unspecified) gave an LC retention time of 15.2 min. `COc1ccc2cc(C(C)C(=O)O)ccc2c1` (stereo unspecified) showed an LC retention time of 20.9 min. For `COC(=O)c1c(C)nc(C)c(C(=O)OC)c1-c1ccccc1[N+](=O)[O-]`, the LC retention time was 20.5 min. Compound `COc1ccc(C(CN(C)C)C2(O)CCCCC2)cc1` (stereo unspecified) has an LC retention time of 13.5 min. Compound `COCCc1ccc(OCC(O)CNC(C)C)cc1` (stereo unspecified) has an LC retention time of 12.1 min. For `Cc1cc(C)nc(NS(=O)(=O)c2ccc(N)cc2)n1`, the LC retention time was 12.4 min. With `NC(=O)N1c2ccccc2CC(O)c2ccccc21` (stereo unspecified) the LC retention time was 13.9 min. With `CC1(C)SC2C(NC(=O)Cc3ccccc3)C(=O)N2C1C(=O)O` (stereo unspecified) the LC retention time was 16.9 min. Compound `O=C(c1ccccc1)c1ccc2n1CCC2C(=O)O` (stereo unspecified) has an LC retention time of 19.7 min. Compound `NCC1(CC(=O)O)CCCCC1` has an LC retention time of 6.5 min. For `Cc1nnc(NS(=O)(=O)c2ccc(N)cc2)s1`, the LC retention time was 12.7 min. Work on `CN1C(=O)CCC1c1cccnc1` (stereo unspecified) yielded an LC retention time of 3.2 min. For `Cc1cc(NS(=O)(=O)c2ccc(N)cc2)no1`, the LC retention time was 15.3 min. In the case of `CC12CCC(O)CC1CCC1C2CC(O)C2(C)C(C3=CC(=O)OC3)CCC12O` (stereo unspecified), the LC retention time is reported as 13.4 min. For `CC(=O)CC(c1ccccc1)c1c(O)c2ccccc2oc1=O` (stereo unspecified), the LC retention time was 21.4 min. For `Cn1c(=O)c2c(ncn2C)n(C)c1=O`, the LC retention time was 9.8 min. `CCCC1CC(C(=O)NC(C(C)O)C2OC(SC)C(O)C(O)C2O)N(C)C1` (stereo unspecified) showed an LC retention time of 8.7 min. In the case of `NC(=O)N1c2ccccc2CCc2ccccc21`, the LC retention time is reported as 17.1 min. In the case of `CC1=CC(O)CC(=O)Cc2nc(co2)C(=O)N2CCC=C2C(=O)OC(C(C)C)C(C)C=CC(=O)NCC=C1.CCC1NC(=O)C(NC(=O)c2ncccc2O)C(C)OC(=O)C(c2ccccc2)NC(=O)C2CC(=O)CCN2C(=O)C(Cc2ccccc2)N(C)C(=O)C2CCCN2C1=O` (stereo unspecified), the LC retention time is reported as 18.4 min. With `CC(C)NCC(O)COc1cccc2ccccc12` (stereo unspecified) the LC retention time was 14.4 min. `CC(C)Cc1ccc(C(C)C(=O)O)cc1` (stereo unspecified) showed an LC retention time of 23.6 min. Work on `CC(C)NCC(O)COc1ccc(CC(N)=O)cc1` (stereo unspecified) yielded an LC retention time of 4.2 min. With `Cc1ccc(C)c(OCCCC(C)(C)C(=O)O)c1` the LC retention time was 25 min. For `COc1ccccc1OCC(O)CO` (stereo unspecified), the LC retention time was 12.7 min.
